Measured values taken from patent US10604535B2, “Compounds, compositions and methods” (Denali Therapeutics Inc., priority 2016, dated 2020).
Where two headings read alike, the source gives them in different places.

How the values were obtained:
[1] = test system: human cryopreserved hepatocytes; assay: Metabolic stability (hepatocytes); conditions: for Human hepatocyte CLhep Avg: human cryopreserved hepatocytes
Method: (§1) The metabolic stability of compounds was evaluated in human cryopreserved hepatocytes (BioreclamationlVT, NY, USA) in duplicate. Test articles (or controls) were added to a 24-well incubation plate (Becton Dickinson Labware, USA) containing 0.5×10^6 hepatocytes/mL in suspension. The plate was held at 37° C. and agitated with constant orbital shaking (orbital speed at 350 rpm). At each time point (0, 5, 10, 15, 20, 30, 45, 60, 90, 120, 150 and 180 min) a Tecan Evo robot aspirated 50 μL of the incubation mixture and 100 μL of acetonitrile containing internal standard to quench the reaction. […] Samples were centrifuged (3000 rpm for 10 minutes) and the plate sealed prior to injection onto an LC-MS/MS system.
(§2) The appropriate parent/daughter ions were monitored for the test article and IS with the LC-MS/MS system. The intrinsic clearance (Clint; expressed μL/min/million cells) was determined from the first order elimination constant (k, min^−1) of test article decay and the volume of the incubation. […] The intrinsic organ CL was then converted to the hepatic clearance (CLhep) using the well-stirred model as shown below, where Qh is human hepatic blood flow.
(§3) Hepatic clearance is expressed as mL/min/kg. The hepatic clearance relates to the flow of blood through the liver that is completely cleared of the compound.

[2] = test system: FADD-deficient Jurkat cells; assay: Cellular necroptosis assay (human TNFα-induced necrosis, CellTiter-Glo); assay type: cell-based; conditions: Homo sapiens, Jurkat, 48 h, TNFα 10 ng/mL, read-out: Cell IC50
[3] = male, Beagle, in vivo, iv
Method: (§4) The protein binding in plasma was determined using a Rapid Equilibrium Dialysis Device (Thermo Scientific RED Device) or 96-well dialyzer apparatus (HTDialysis LLC). […] If required, plasma samples were pre-incubated (2 hours at 37° C.) with diisopropyl fluorophosphate (DFP) at the final concentration of 100 μM to prevent compound degradation due to amide hydrolysis. Appropriate volumes of spiked samples along with blank phosphate buffer were added to either device and incubated at 37° C. for a total of 5 hours with agitation at 500 rpm. Following incubation, an equal aliquot of dialysed matrix (plasma or buffer) is added to an equal volume of the opposite blank matrix such that the volume of buffer to plasma are equal. Mixed matrix samples were extracted by protein precipitation using acetonitrile containing the appropriate IS. Samples were then centrifuged for 10 min at 2800 rpm. Supernatants were collected and diluted and then injected on to an HPLC-MS/MS or UPLC-MS/MS system. Samples were analyzed by monitoring the appropriate parent/daughter ion transitions for the test and control compounds. The peak area ratios were used to measure test item concentrations. The fraction unbound (Afu) was determined as the ratio of the peak area ratio in buffer divided by the peak area ratio in plasma.
The PK properties of test articles were determined in male Sprague-Dawley Crl:CD(SD) rats, male Beagle dogs and male cynomolgus monkeys. […]
Following dose administration, 8-9 serial blood samples were collected over 24 hours. […] The processed supernatant was analyzed using UPLC or LC-MS/MS using specific parent/daughter ion pairs for the test article and IS. Plasma concentrations were determined using a calibration curve prepared using known concentrations of analyte. Pharmacokinetic parameters utilizing measured concentrations were calculated using Phoenix WinNonlin. The unbound plasma clearance was calculated as the ratio of the total body clearance divided by the fraction unbound in plasma.

[4] = male, Sprague-Dawley Crl:CD(SD), in vivo, iv
Method: as §4
The PK properties of test articles were determined in male Sprague-Dawley Crl:CD(SD) rats, male Beagle dogs and male cynomolgus monkeys. Studies were conducted to the highest standards of animal welfare in accordance with national legislation and under approval of the internal animal care and use committees.
Compounds were administered by IV bolus to animals following an overnight fast. […] The formulations were administered at dose volumes ranging from 0.5-2 mL/kg. The IV dose ranged from 0.5-1 mg/kg.
Following dose administration, 8-9 serial blood samples were collected over 24 hours. Samples were mixed with anticoagulant and placed on wet ice prior to processing. Plasma was harvested following centrifugation, extracted using protein precipitation with acetonitrile containing IS. The processed supernatant was analyzed using UPLC or LC-MS/MS using specific parent/daughter ion pairs for the test article and IS. Plasma concentrations were determined using a calibration curve prepared using known concentrations of analyte. Pharmacokinetic parameters utilizing measured concentrations were calculated using Phoenix WinNonlin. The unbound plasma clearance was calculated as the ratio of the total body clearance divided by the fraction unbound in plasma.

TNF/zVAD = conditions: 30 mg/kg, from Table 2 of WO 2014/125444; cited from earlier work
[5] = test system: human cryopreserved hepatocytes
Method: as §1, §2, §3

GST-hRIPK1 (8-327) = GST-hRIPK1 (8-327) (Homo sapiens (Human), UniProt Q13546); assay: Fluorescent Polarization Binding (FP Binding) assay
MDCKII-MDR1 cell line = assay: MDCKII-MDR1 permeability, efflux ratio; assay type: in vitro ADME; conditions: MDCKII-MDR1, 3 μM, 90 min
Method: The blood brain barrier (BBB) separates circulating blood from the extracellular fluid of the central nervous system (CNS). The passive membrane permeability (Papp) and the P-gp (P-glycoprotein) substrate efflux potential were determined using the MDCKII-MDR1 cell line as an in vitro model of the effective permeability of a compound through the BBB. A bidirectional assay (Apical to Basolateral (A→B) and Basolateral to Apical (B→A)), in the absence and in the presence of GF120918 (a P-gp inhibitor) was conducted using pre-plated MDCKII-MDR1 cells (Corning HTS Transwell-96) obtained from SOLVO Biotechnology. The assay was run at 3 μM for 90 min (minutes) in triplicate using a HBSS+12.5 mM HEPES pH 7.4 transport buffer. Following incubation of samples from donor and receiver, wells were removed and measured by LC-MS/MS. Samples were extracted by protein precipitation with acetonitrile containing an appropriate internal standard (IS) having a known mass and molecular weight. The precipitate was centrifuged for 10 min at 3000 rpm (revolutions per minute). The supernatants were then collected, diluted if necessary, and injected on to the LC-MS/MS system. […] Papp (apparent permeability expressed in nm/sec [nanometer/second]) values were calculated according to the following equation: […]
Where dQ/dt is the permeability rate, C0 is the initial concentration in the donor solution (expressed as IS ratio), A and B are the surface areas of the filter (the surface area of the cell monolayer).
Monolayer efflux ratios (ER) were derived using the following equation: […]

Sequence of GST-hRIPK1 (8-327) (Q13546 8-327): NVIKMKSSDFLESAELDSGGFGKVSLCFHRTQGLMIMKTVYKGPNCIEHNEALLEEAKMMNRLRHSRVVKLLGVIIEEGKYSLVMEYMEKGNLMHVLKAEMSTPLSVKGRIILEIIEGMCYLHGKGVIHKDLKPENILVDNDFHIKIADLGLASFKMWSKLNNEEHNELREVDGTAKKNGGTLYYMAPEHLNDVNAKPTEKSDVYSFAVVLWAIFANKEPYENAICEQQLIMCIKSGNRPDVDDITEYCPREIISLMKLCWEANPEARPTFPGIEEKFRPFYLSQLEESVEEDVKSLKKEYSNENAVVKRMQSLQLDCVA

**Q.** Which “clearance as % of liver blood flow” value ([1]; corresponding to human CLhep) does the source give for `CN1C(=O)[C@@H](NC(=O)c2nnc(Cc3ccccc3)[nH]2)COc2ccccc21` [A, reference compound] here?
**A.** approximately 32%

**Q.** And the “Human hepatocyte CLhep Avg” value [1]?
**A.** 6.8 mL/min/kg

**Q.** What about the IC50 [2] of the same molecule?
**A.** 0.5 nM

**Q.** And the “Dog unbound CL” value [3]?
**A.** 240 mL/min/kg

**Q.** And the “Rat unbound CL” value [4]?
**A.** 77 mL/min/kg

**Q.** What about the “inhibition of temperature loss” value (TNF/zVAD) of the same molecule?
**A.** 93%

**Q.** What does the source list for `CN1C(=O)[C@@H](NC(=O)c2ncn(Cc3cccc(C#N)c3)n2)COc2cccnc21` [Example 171, (S)-1-(3-cyanobenzyl)-N-(5-methyl-4-oxo-2,3,4,5-tetrahydropyrido[3,2-b][1,4]oxazepin-3-yl)-1H-1,2,4-triazole-3-carboxamide]?
**A.** Human hepatocyte CLhep Avg [5]: 5.1 mL/min/kg; Rat unbound CL [4]: 32 mL/min/kg

**Q.** Which results are given for `CN1C(=O)[C@@H](NC(=O)c2cc(Cc3ccccc3)on2)CC2(CC2)c2ccccc21` [Example 9, (S)-5-benzyl-N-(1-methyl-2-oxo-1,2,3,4-tetrahydrospiro[benzo[b]azepine-5,1′-cyclopropan]-3-yl)isoxazole-3-carboxamide]?
**A.** Human hepatocyte CLhep Avg [5]: 19 mL/min/kg; IC50 (GST-hRIPK1 (8-327)): 0.1 to 1000 nM

**Q.** What does the source list for `CN1C(=O)[C@@H](NC(=O)c2cc(C3(c4ccccc4)CC3)on2)COc2ccccc21` [Example 8, (S)—N-(5-methyl-4-oxo-2,3,4,5-tetrahydrobenzo[b][1,4]oxazepin-3-yl)-5-(1-phenylcyclopropyl)isoxazole-3-carboxamide]?
**A.** Human hepatocyte CLhep Avg [5]: 19 mL/min/kg; IC50 (GST-hRIPK1 (8-327)): 0.1 to 1000 nM; Rat unbound CL [4]: 3700 mL/min/kg

**Q.** Which “Human hepatocyte CLhep Avg” value [1] does the source give for `CN1C(=O)[C@@H](NC(=O)c2nnc(Cc3ccccc3)o2)COc2ccccc21` [B, reference compound] here?
**A.** 14 mL/min/kg

**Q.** And the “ER MDR1” value (MDCKII-MDR1 cell line)?
**A.** 1.0

**Q.** What about the IC50 [2] of the same molecule?
**A.** 0.3 nM
